Source: patent US6066656A, “2,5-diamino-3,4-disubstituted-1,6-diphenylhexane isosteres comprising benzamide, sulfonamide and anthranilamide subunits and methods of using same” (The United States of America as represented by the …, priority 1998, dated 2000)
pEC50, pKi: −log10 of the molar value. “And” between values parts separate entries of the source, which are not always exact repeats. Identical values can stand only once. Like-named read-outs stand apart in the source and are kept apart here.

Key:
[1] = target: T1, HIV-1 protease (wild-type, WT) (Human immunodeficiency virus type 1 group M subtype B, UniProt P04585); experiment: Inhibition of purified wild-type HIV-1 protease (fluorogenic substrate cleavage), Ki and % inhibition; format: biochemical; conditions: for pKi: read-out: Ki
T1 construct: purified HIV-1 protease (wild-type, WT)
Protocol: The inhibition constants (Ki) for the compounds of the above examples were determined using purified HIV-1 protease (wild-type, WT) (Tables I, II, IV and V) and R8Q and V82I mutant HIV-1 proteases (Table III). Ki is an inhibition constant of a given compound as derived by enzyme kinetics. A low Ki represents a high affinity of the compound for the enzyme, i.e., tight binding or low dissociation. Inhibition of the cleavage was assayed using a fluorogenic substrate available from Molecular Probes, Inc., Eugene, Oreg., and described in Kageyama et al., Antimicrob. Agents. Chemother., 37, 272 (1993), and a fluorogenic substrate available from Bachem California, Torrance, Calif., and described in Kageyama et al. (1993), supra. The inhibitory potencies of these compounds are set forth in Tables I-V. Percent inhibition is the percentage inhibition of an enzyme's activity by a given compound at a given concentration.

[2] = Fluorescence of compounds; format: physicochemical
Text: The determination of which compounds of the present invention fluoresce can be done in accordance with methods well-known to those of ordinary skill in the art. Such fluorescence can be used to assay for antiviral activity of newly discovered compounds. For example, a fluorescent compound of the present invention can be used as a standard in an antiviral activity assay. The fluorescence of the compound can be measured in the absence and presence of a viral enzyme, such as a retroviral enzyme, in particular a retroviral protease, e.g., an HIV protease, in vitro. A test compound can then be added to the test system comprising the fluorescent compound and the enzyme. The decreased fluorescence of the fluorescent compound of the present invention in the absence and presence of the test compound can be measured and quantitated as a measure of the antiviral activity of the test compound.

[3] = tested on: HIV-1; experiment: Anti-retroviral activity in CEM cells chronically infected with HIV-1 (soluble formazan assay); format: cell-based; conditions: Human immunodeficiency virus 1, CCRF-CEM, 50% inhibition of viral activity
Protocol: The concentration of compound that inhibits 50% of viral activity (EC50 ; determined as described in Weislow et al. (1989), supra) and the inhibition constant (Ki, as defined in Example 7) for the compound were determined.

[4] = tested on: CEM cells; experiment: Toxicity of DD-5; format: cell-based; conditions: even at doses as high as 10^-4 M
[5] = tested on: p24 synthesis; experiment: Suppression of p24 synthesis; format: cell-based, HIV-1; conditions: Human immunodeficiency virus 1; read-out: concentrations suppressing p24 synthesis
[6] = tested on: viral activity; conditions: comparison compounds in clinical trials; cited from earlier work

SMILES	pKi ([1]; Table IV)	pKi [1]	fluorescence [2]	pEC50 [3]	pEC50 [6]	also measured
O=C(Nc1ccccc1C(=O)N[C@@H](Cc1ccccc1)[C@H](O)[C@H](O)[C@H](Cc1ccccc1)NC(=O)c1ccccc1NC(=O)OCc1ccccc1)OCc1ccccc1 [Compound 27]	8.62	8.62	good fluorescence	–	–	relative potency vs compound 26 ([1]; more potent than compound 26): 20 times
O=C(Nc1ccccc1C(=O)N[C@@H](Cc1ccccc1)[C@H](O)[C@H](O)[C@H](Cc1ccccc1)NC(=O)c1ccccc1NC(=O)OCc1ccccn1)OCc1ccccn1 [Compound 34]	10.22	10.21 and 10.19	good fluorescence	8.49	–	–
O=C(Nc1ccccc1C(=O)N[C@@H](Cc1ccccc1)C[C@H](O)[C@H](Cc1ccccc1)NC(=O)c1ccccc1NC(=O)OCc1ccccn1)OCc1ccccn1 [Compound 36]	–	–	–	8.62	–	toxicity [4]: no toxicity; minimal effective concentration [5]: ≥ 0.01 µM
CSC[C@H](NC(=O)COc1cccc2cnccc12)C(=O)N[C@@H](Cc1ccccc1)[C@H](O)C(=O)N1CSC[C@H]1C(=O)NC(C)(C)C [KNI272]	–	–	–	–	8.38	–
CC(C)(C)NC(=O)[C@@H]1C[C@@H]2CCCC[C@@H]2CN1C[C@@H](O)[C@H](Cc1ccccc1)NC(=O)[C@H](CC(N)=O)NC(=O)c1ccc2ccccc2n1 [Ro31-8959]	–	–	–	–	8.00	–
